Experimental findings from US10806765B2, “Immunologically active phyto-mixture and its use in the prevention and in a method for treatment of efflorescences” (priority 2015, dated 2020) are described below.

By IC50 is commonly meant the concentration that gives 50% inhibition. Lower therefore signals greater potency. A word on the MBC: it is the lowest tested concentration that kills the bacteria rather than only halting them. One may read the MIC as the lowest concentration that inhibits growth of the organism.

Common to all, as to type: cell-based
The nature of data set [1]: MTT-assay, cytotoxicity of the extracts. Particulars: human, HaCaT cells (keratinocytes), individual extracts, mean ± SD, n=3. (In general: Tetrazolium assays rely on reduction of a dye to a coloured formazan, in cell work by metabolically active cells.)
Protocol: HaCaT-Cells (human in vitro spontaneous transformed keratinocytes from histologically normal skin) of DMSZ (German Collection of Microorganisms and Cell Cultures) were kept in Dulbecco's modified Eagle Medium (DMEM) with glutamax (Invitrogen/Gibco, Karlsruhe, Germany) with 10% fetal calf serum (Sigma Aldrich, Germany), 100 U/ml penicillin and 100 μg/ml streptomycin and 1% NEAA.
The cells were cultivated at 37° C., 5% CO2 and 95% humidity. The cells were subcultivated by removing the medium, adding 0.075% EDTA-solution in 1-fold PBS (phosphate-buffered salt solution) and subsequently incubated at 37° C. for 10 min. […]
In order to determine the concentration dependent cytotoxicity 2×10^4 HaCaT-cells/sample well of a 96-well plate were transferred and incubated for 24 hours. […] After dissolving the formazan crystals formed by the HaCaT-cells in 100 μl DMSO (10 minutes shaking), absorption at 570 nm was measured (by means of Tecan Safire II Reader, Tecan Crailsheim, Germany). Doxorubicin was measured as reference. Cell vitality was determined according to the following formula:
IC50-values were calculated through the dose response curve which was created by use of a logistic regression curve with 4 parameters with the GraphPad Prism® 5.01 Software or SigmaPlot® 11.0.
The subject of data set [2] is Acinetobacter baumanii ATCC BAA747. Kind of data set: MIC/MBC, microbouillon dilution. Particulars: Acinetobacter baumannii, ATCCBAA747. How it is done: (§1) Gram-Positive Bacteria • Methicillin resistant Staphylococcus aureus MRSA NCTC 10442 (MRSA NCTC 10442) • Staphylococcus aureus ATCC 25923 (S. aureus ATCC 25923) • Staphylococcus epidermidis ATCC 14990 (S. epid. ATCC 14990)
(§2) Gram-Negative Bacteria • Pseudomonas aeruginosa ATCC 27853 (P. aerug. ATCC 27853) and • Acinetobacter baumanii ATCC BAA747 (ATCC BAA747)
(§3) The bacteria were precultivated on Columbia medium with 5% sheep blood at 37° C. for 24 hours. On to two colonies were suspended in saline solution (0.9% NaCl) and adjusted to a turbidity of 0.5 McFarland standard which corresponds to 1×10^8 colony forming units per milliliter (CFU/ml). Subsequently, the suspension was diluted to 1×10^6 CFU/ml.
(§4) Determination of the Minimal Inhibitory Concentration (MIC) and the Minimum Bactericidal Concentration (MBC)
(§5) The MIC was determined by means of the microbouillon dilution process according to NCCLS (2006). For this purpose, the aqueous extracts were dissolved in water (w/v) and the ethanolic extracts in 5% DMSO (w/v) with 80 mg/ml each and Bur. simaruba as well as Aloe vera were suspended with 160 mg/ml. The extracts and the combinations (1:1 mixture) of two plant extracts were respectively transferred into a sample well of a 96-well plate. The individual extracts were respectively adjusted to a concentration of 4 mg/ml to 8 mg/ml and 0.03 mg/ml and the combinations to 2:2 mg/ml to 0.3:0.3 mg/ml. Subsequently, the bacteria suspensions with about 5×10^5 CFU/ml in Müller Hinton medium (Fluka) were respectively added. The accordingly fitted 96-well plates were incubated at 37° C. for 24 hours.
(§6) The MIC was determined at 600 nm on the basis of the turbidity. In order to determine the MBC, 3 μl of the suspension of the respective sample well were spread on an full culture medium and incubated at 37° C. for 24 hours. The MBC was determined as lowest concentrations of the respective extract which totally kills the microorganisms.
(§7) All experiments were performed as three-fold determination (Table 4 to 5). The antibiotics Vancomycin (briefly: Van) and Streptomycin (briefly: Strep) were used parallely to each experimental approach as positive control for antimicrobial efficiency (Table 5c). Respectively one of the mentioned test germs was carried along with the respectively solvent (water, DMSO) as negative control for an inhibiting effect by the used solvent.

Data set [3] relates to Pseudomonas aeruginosa ATCC 27853. The data set can be described thus: MIC/MBC, microbouillon dilution. To be noted: ATCC27853, positive control antibiotic, unit from Table 5c. The protocol:
as §1, §2, §3, §4, §5, §6, §7

Data set [4] concerns Staphylococcus aureus ATCC 25923. Kind of data set: MIC/MBC, microbouillon dilution. The protocol: as §1, §2, §3, §4, §5, §6, §7
Data set [5] deals with Staphylococcus epidermidis ATCC 14990. The data set can be described thus: MIC/MBC, microbouillon dilution. How it is done:
as §1, §2, §3, §4, §5, §6, §7

The subject of data set [6] is Methicillin resistant Staphylococcus aureus MRSA NCTC 10442. Kind of data set: MIC/MBC, microbouillon dilution. How it is done: as §1, §2, §3, §4, §5, §6, §7

Values after ≈ are worked out from the molar mass of the structure shown. Read-outs that look alike come from different tables or passages of the source.

For the compound `COc1cccc2c1C(=O)c1c(O)c3c(c(O)c1C2=O)C[C@@](O)(C(=O)CO)C[C@@H]3O[C@H]1C[C@H](N)[C@H](O)[C@H](C)O1` [Doxorubicin], the IC50 in data set [1] was determined as 8.6 ± 2.03 µg/mL (≈ 15.8 µM).

For the compound `[H]/N=C(/N)N[C@H]1[C@H](O)[C@@H](O)[C@H](O[C@@H]2O[C@@H](C)[C@](O)(C=O)[C@H]2O[C@@H]2O[C@@H](CO)[C@H](O)[C@@H](O)[C@@H]2NC)[C@@H](N/C(N)=N\[H])[C@@H]1O` [Strep, Streptomycin], the MBC was determined as 4 µg/mL in data set [2] (positive control antibiotic, unit from Table 5c, read-out: MBC); 8 µg/mL in data set [3]; 8 µg/mL in data set [4] (ATCC25923, positive control antibiotic, unit from Table 5c, read-out: MBC); 8 µg/mL in data set [5] (ATCC14990, positive control antibiotic, unit from Table 5c, read-out: MBC). The MIC in data set [2] (positive control antibiotic, unit from Table 5c, read-out: MIC) worked out at 2 µg/mL; in data set [3], 4 µg/mL; in data set [4] (ATCC25923, positive control antibiotic, unit from Table 5c) it was 2 µg/mL; in data set [5] (ATCC14990, positive control antibiotic, unit from Table 5c, read-out: MIC), 1 µg/mL.

For the compound `CN[C@H](CC(C)C)C(=O)N[C@H]1C(=O)N[C@@H](CC(N)=O)C(=O)N[C@H]2C(=O)N[C@H]3C(=O)N[C@H](C(=O)N[C@H](C(=O)O)c4cc(O)cc(O)c4-c4cc3ccc4O)[C@H](O)c3ccc(c(Cl)c3)Oc3cc2cc(c3O[C@@H]2O[C@H](CO)[C@@H](O)[C@H](O)[C@H]2O[C@H]2C[C@](C)(N)[C@H](O)[C@H](C)O2)Oc2ccc(cc2Cl)[C@H]1O` [Van, Vancomycin], the MBC in data set [2] was determined as 128 µg/mL; in data set [6], 2 µg/mL; in data set [4] (ATCC25923) it was 0.5 µg/mL; in data set [5] (ATCC14990) it was 2 µg/mL. The MIC in data set [2] came to 64 µg/mL; in data set [6], 1 µg/mL; in data set [5] (ATCC14990), 1 µg/mL.
